These results are taken from patent US10976319B2, “Cell response assay for cancer and methods of producing and using same” (Siemens Healthcare Diagnostics Inc., priority 2011, dated 2021).

The conditions of data set [1]: cited from earlier work; for log Ka: Eu2+ complexed by amine poly carboxylate ions.
The subject of the next data set is prostate cancer cells. The data set is described as follows: Cell response assay for prostate cancer, cells before and after camptothecin treatment. It counts as cell-based. As to the method:
(§1) The procedure to test the method was to collect 4 mL normal whole blood fresh into a VACUTAINER® tube (BD 6 mL VACUTAINER® K2EDTA tube, 10.8 mg, ref 367863, Becton Dickinson, Oakville, ON) and transfer the blood into a round centrifuge tube sealed with top. Cancer cells were added by 40 μL of prostate cell cancer suspension to obtain a range of 3000 to 8000 cells/mL (8 cells/μL or 1-2 per high powered filed HRP (HRP=0.2 μL)). The blood was lysed by adding 3 mL of lysis buffer (155 mM NH4Cl, 20 mM KHCO3, 0.1 mM Na2EDTA, pH 7.4). The tubes were rolled tubes to assure that the cells were evenly distributed and that lysis was complete, and then the sample was spun down for 15 minutes at 12,000 rpm. Next, the plasma was decanted as waste supernatant, and 4.0 mL of TES buffer (50 mM N-Tris [Hydroxymethyl]-2-aminoethane-sulfonic acid: TES, pH 7.4, 2150 mM NaCl, 2 mM MgSO4 and 1 mM KCO3) and 1% albumin was added, and the tube was rocked to mix the cells. The tube was spun down again for 15 minutes at 12,000 rpm, and the supernatant was decanted as waste. A final 2.0 mL of TES wash buffer was added with rocking to mix cells.
(§2) The cells were then reacted with the reagents by taking 0.5 mL of washed blood to the centrifuge tube, and 40 μL of antibodies for PSA labeled with Cy5 and 40 μL of antibodies for urokinase like plasminogen activator (uPA) or plasminogen activator inhibitor (PAI-1) labeled with Texas Red (at working stock of 0.001 to 0.1 mg/mL) and PL2L piwi like labeled with FITC (at working stock of 0.001 to 0.1 mg/mL) were added. Next, 10 μl of a 100 μg/ml 4,6 Diamidino-2-phenylindole dihydrochloride (DAPI; a nucleic acid binding probe) was added from a solution in TES buffer. This was followed by incubation for 15 minutes at 37° C.
(§3) The sample was centrifuged down for 5 minutes @ 7500 rpm, and the supernatant was decanted off as waste (^˜450 μL). 500 μL of TES buffer was then added, and the sample was vortexed and centrifuged down at 5 minutes @ 7500 rpm. Again, the supernatant was decanted off by tapping as waste (^˜450 μL). A final 500 μL of TES wash buffer was added for final imaging, and 5 μL of the solution was placed on a slide with a long cover slip of glass. Phase contrast and fluorescence microscopy was conducted with the Leica DM5000 (Leica Microsystems, Buffalo Grove, Ill.).
The Texas Red label (ex 592, em 614 nm) was measured with a excitation band pass filter at 540-580 nm and emission band pass filter at 610-680 nm. The FITC label (ex 488, em 525 nm) was measured with an excitation band pass filter at 460-500 nm and an emission band pass filter at 512-543 nm. The DAPI probe (ex 355, em 460 nm) was measured with an excitation band pass filter at 340-380 nm and an emission band pass filter at 450-490 nm. The Cy5 label (ex 646, em 676 nm) was measured with an excitation band pass filter at 590-650 nm and an emission band pass filter at 665-735 nm.
A novel cell response assay for prostate cancer was developed by using PSA as a tissue type marker for prostate carcinoma (Biomarker A) that is always present in the disease state. […] Chemo resistance nature (Biomarker C) was determined using PL2L piwi like antigen to determine the inhibitory response to tissue invasiveness. […]

The subject of the next data set is breast cancer cells. Nature of the data set: Cell response assay for breast cancer, cells before and after camptothecin treatment. It counts as cell-based. As to the method:
as §1, with “breast” for “prostate”, “cells/4” for “cells/μL”
as §2, with “HER2/neu” for “PSA”
as §3, with “Ill.). A sample of cells was stained with the PSS-550 probe (ex 553, em 615 nm) and measured with an excitation band pass filter at 540-580 nm and an emission band pass filter at 610-680 nm to determine cell membrane flopping as a measure of cell death in addition to cell counts.” for “Ill.).”
The Texas Red label (ex 592, em 614 nm) was measured with an excitation band pass filter at 540-580 nm and an emission band pass filter at 610-680 nm. The FITC label (ex 488, em 525 nm) was measured with an excitation band pass filter at 460-500 nm and an emission band pass filter at 512-543 nm. The DAPI probe (ex 355, em 460 nm) was measured with an excitation band pass filter at 340-380 nm and an emission band pass filter at 450-490 nm. The Cy5 label (ex 646, em 676 nm) was measured with an excitation band pass filter at 590-650 nm and an emission band pass filter at 665-735 nm.
A novel cell response assay for breast cancer was developed by using HER2/neu as a tissue type marker for carcinoma breast cancer (Biomarker A) that is always present in the disease state. […]

Where [2] appears, read: camptothecin concentration adjusted.
Setting [3] is: when the cell death % was highest.

“And” between values parts separate entries of the source, which are not always exact repeats. Equal values may be shown once.

As for `O=C(O)CN(CC(=O)O)C1CCCCC1N(CC(=O)O)CC(=O)O` (centres unmarked) [DCTA], the “log Ka” value in data set [1] is on record as 19.
Regarding `O=C(O)CN(CCN(CC(=O)O)CC(=O)O)CCN(CC(=O)O)CC(=O)O` [DTPA], in data set [1], the “log Ka” value was 23.
Regarding `O=C(O)CN(CCN(CC(=O)O)CC(=O)O)CC(=O)O` [EDTA], the “log Ka” value in data set [1] is listed as 17.
As for `CC(=O)CC(=O)c1ccccc1` [HBA, benzoylacetone], in data set [1] (europium chelate), the “log K” value is listed as 18.9.
Take `O=C(O)CN(CCO)CCN(CC(=O)O)CC(=O)O` [HEDTA]: the “log Ka” value in data set [1] was 15.
Regarding `O=C(O)CNCC(=O)O` [IMDA], the “log Ka” value in data set [1] is 6.
Turning to `O=C(CC(=O)C(F)(F)F)c1cccs1` [TTA, thenoyltriflouracetone], the “association constant (log Ka)” value in data set [1] (europium chelate, when converted to enolate) was 8.0.
As to `CC[C@@]1(O)C(=O)OCc2c1cc1n(c2=O)Cc2cc3ccccc3nc2-1` [camptothecin], the cancer cell count result in the data set on prostate cancer cells (as the cell death % increased) and in the data set on breast cancer cells (as the cell death % increased) was “decrease” throughout. Moreover, the phosphatidylserine flopping result in the data set with prostate cancer cells (as the cell death % increased) and with breast cancer cells (as the cell death % increased) was “increased” in each case. The “% of the cancer cells in cultures killed” value was > 80% and 60% and 40% in the data set on prostate cancer cells (setting [2]); > 80% and 60% and 40% with breast cancer cells (setting [2]). The “biomarker B, namely uPA and PA1 (metastatic potential)” value with prostate cancer cells (setting [3]) and with breast cancer cells (setting [3]) was “increase” each time. The “biomarker C, namely PL2L piwi like (chemo resistance)” value in the data set on prostate cancer cells (setting [3]) and in the data set on breast cancer cells (setting [3]) was “decrease” throughout.
